Paper PMC11992225, “Antibacterial compounds against non-growing and intracellular bacteria” (npj Antimicrobials and Resistance, 2025)
Where “and” joins values, the source holds several entries; their conditions need not be identical. Equal values may be shown once.

Experiments:
[1] = test system: non-growing S. aureus DSM2569; assay: Dose-dependent killing analysis (CFU spot-plating) of stationary-phase S. aureus; assay type: cell-based, Staphylococcus aureus; settings: S. aureus; for Killing: average Δlog10(CFU/ml): vs 9,097 before treatment
Procedure, shortened: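 Stationary-phase S. aureus DSM2569 was grown and treated for 24 h in 1:4 CA-MHB at pH 7.4. Treated samples were serially diluted 10-fold in PBS and spot-plated on LB agar, which was incubated overnight at 37 °C. Survivors were counted as CFU over three biological replicates.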

non-growing UPEC CFT073 = assay: Dose-dependent killing analysis (CFU spot-plating) of stationary-phase UPEC; assay type: cell-based, Escherichia coli
Procedure, shortened: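 Non-growing (stationary-phase) UPEC CFT073 treated with compounds in 96-well format at 200 μl, then 10-fold serially diluted in PBS and 10 μl spots plated on LB agar. Plates incubated overnight at 37 °C; colonies counted at lowest resolvable dilution to give CFU. Three biological replicates.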

[2] = test system: intracellular S. flexneri 5a M90T in TC7 cells; assay: microbe, parasite or virus in culture; assay type: cell-based, Shigella flexneri; settings: TC7 cells infected with GFP-expressing S. flexneri, 14 h treatment

CO[C@H]1/C=C/O[C@@]2(C)Oc3c(C)c(O)c4c(O)c(c(/C=N/N=C/N5CCCCC5)c(O)c4c3C2=O)NC(=O)/C(C)=C\C=C\[C@H](C)[C@H](O)[C@@H](C)[C@@H](O)[C@@H](C)[C@H](OC(C)=O)[C@@H]1C [FCE-22250]
log10(CFU/ml) after treatment, single replicates ([1]; concentration 0.1): 9.505 log10(CFU/ml) and 8.903 log10(CFU/ml) and 9.033 log10(CFU/ml) | Killing: average Δlog10(CFU/ml) ([1]; concentration 0.1): -0.050 log10(CFU/ml) | log10(CFU/ml) after treatment, single replicates ([1]; concentration 0.5): 9.107 log10(CFU/ml) and 9.017 log10(CFU/ml) and 8.505 log10(CFU/ml) | Killing: average Δlog10(CFU/ml) ([1]; concentration 0.5): 0.221 log10(CFU/ml) | log10(CFU/ml) after treatment, single replicates ([1]; concentration 2.5): 8.929 log10(CFU/ml) and 8.940 log10(CFU/ml) and 8.806 log10(CFU/ml) | Killing: average Δlog10(CFU/ml) ([1]; concentration 2.5): 0.205 log10(CFU/ml) | log10(CFU/ml) after treatment, single replicates ([1]; concentration 10): 8.973 log10(CFU/ml) and 9.017 log10(CFU/ml) and 8.944 log10(CFU/ml) | Killing: average Δlog10(CFU/ml) ([1]; concentration 10): 0.119 log10(CFU/ml) | log10(CFU/ml) after treatment, single replicates (non-growing UPEC CFT073; E. coli in 1:4 CA-MHB (pH 7.4), concentration 0.25): 9.301 log10(CFU/ml) and 8.845 log10(CFU/ml) and 8.602 log10(CFU/ml) | Killing: average Δlog10(CFU/ml) (non-growing UPEC CFT073; E. coli in 1:4 CA-MHB (pH 7.4), concentration 0.25, vs 8.977 before treatment): 0.061 log10(CFU/ml) | log10(CFU/ml) after treatment, single replicates (non-growing UPEC CFT073; E. coli in 1:4 CA-MHB (pH 7.4), concentration 0.5): 9.505 log10(CFU/ml) and 9.176 log10(CFU/ml) and 8.301 log10(CFU/ml) | Killing: average Δlog10(CFU/ml) (non-growing UPEC CFT073; E. coli in 1:4 CA-MHB (pH 7.4), concentration 0.5, vs 8.977 before treatment): -0.017 log10(CFU/ml) | log10(CFU/ml) after treatment, single replicates (non-growing UPEC CFT073; E. coli in 1:4 CA-MHB (pH 7.4), concentration 1): 9.556 log10(CFU/ml) and 9.114 log10(CFU/ml) and 8.431 log10(CFU/ml) | Killing: average Δlog10(CFU/ml) (non-growing UPEC CFT073; E. coli in 1:4 CA-MHB (pH 7.4), concentration 1, vs 8.977 before treatment): -0.057 log10(CFU/ml) | log10(CFU/ml) after treatment, single replicates (non-growing UPEC CFT073; E. coli in 1:4 CA-MHB (pH 7.4), concentration 2.5): 9.415 log10(CFU/ml) and 8.954 log10(CFU/ml) and 8.342 log10(CFU/ml) | Killing: average Δlog10(CFU/ml) (non-growing UPEC CFT073; E. coli in 1:4 CA-MHB (pH 7.4), concentration 2.5, vs 8.977 before treatment): 0.073 log10(CFU/ml) | log10(CFU/ml) after treatment, single replicates (non-growing UPEC CFT073; E. coli in 1:4 CA-MHB (pH 7.4), concentration 5): 9.477 log10(CFU/ml) and 8.903 log10(CFU/ml) and 8.431 log10(CFU/ml) | Killing: average Δlog10(CFU/ml) (non-growing UPEC CFT073; E. coli in 1:4 CA-MHB (pH 7.4), concentration 5, vs 8.977 before treatment): 0.040 log10(CFU/ml) | log10(CFU/ml) after treatment, single replicates (non-growing UPEC CFT073; E. coli in 1:4 CA-MHB (pH 7.4), concentration 10): 9.519 log10(CFU/ml) and 8.845 log10(CFU/ml) and 8.778 log10(CFU/ml) | Killing: average Δlog10(CFU/ml) (non-growing UPEC CFT073; E. coli in 1:4 CA-MHB (pH 7.4), concentration 10, vs 8.977 before treatment): -0.070 log10(CFU/ml) | log10(CFU/ml) after treatment, single replicates (non-growing UPEC CFT073; E. coli in LPM (pH 5.5), concentration 0.25): 7.041 log10(CFU/ml) and 7.176 log10(CFU/ml) and 8.079 log10(CFU/ml) | Killing: average Δlog10(CFU/ml) (non-growing UPEC CFT073; E. coli in LPM (pH 5.5), concentration 0.25, vs 7.350 before treatment): -0.082 log10(CFU/ml) | log10(CFU/ml) after treatment, single replicates (non-growing UPEC CFT073; E. coli in LPM (pH 5.5), concentration 0.5): 6.845 log10(CFU/ml) and 6.778 log10(CFU/ml) and 8.000 log10(CFU/ml) | Killing: average Δlog10(CFU/ml) (non-growing UPEC CFT073; E. coli in LPM (pH 5.5), concentration 0.5, vs 7.350 before treatment): 0.143 log10(CFU/ml) | log10(CFU/ml) after treatment, single replicates (non-growing UPEC CFT073; E. coli in LPM (pH 5.5), concentration 1): 7.176 log10(CFU/ml) and 7.255 log10(CFU/ml) and 8.000 log10(CFU/ml) | Killing: average Δlog10(CFU/ml) (non-growing UPEC CFT073; E. coli in LPM (pH 5.5), concentration 1, vs 7.350 before treatment): -0.127 log10(CFU/ml) | log10(CFU/ml) after treatment, single replicates (non-growing UPEC CFT073; E. coli in LPM (pH 5.5), concentration 2.5): 6.845 log10(CFU/ml) and 6.954 log10(CFU/ml) and 7.845 log10(CFU/ml) | Killing: average Δlog10(CFU/ml) (non-growing UPEC CFT073; E. coli in LPM (pH 5.5), concentration 2.5, vs 7.350 before treatment): 0.136 log10(CFU/ml) | log10(CFU/ml) after treatment, single replicates (non-growing UPEC CFT073; E. coli in LPM (pH 5.5), concentration 5): 6.778 log10(CFU/ml) and 6.845 log10(CFU/ml) and 7.785 log10(CFU/ml) | Killing: average Δlog10(CFU/ml) (non-growing UPEC CFT073; E. coli in LPM (pH 5.5), concentration 5, vs 7.350 before treatment): 0.214 log10(CFU/ml) | log10(CFU/ml) after treatment, single replicates (non-growing UPEC CFT073; E. coli in LPM (pH 5.5), concentration 10): 6.954 log10(CFU/ml) (2×) and 7.531 log10(CFU/ml) | Killing: average Δlog10(CFU/ml) (non-growing UPEC CFT073; E. coli in LPM (pH 5.5), concentration 10, vs 7.350 before treatment): 0.204 log10(CFU/ml) | Fluorescence intensity (RFU), Mean, 0.0625 x MIC ([2]; 0.0625 x MIC): 8508.25 RFU | Fluorescence intensity (RFU), Mean, 0.125 x MIC ([2]; 0.125 x MIC): 9069.58 RFU | Fluorescence intensity (RFU), Mean, 0.25 x MIC ([2]; 0.25 x MIC): 2896.5 RFU | Fluorescence intensity (RFU), Mean, 0.5 x MIC ([2]; 0.5 x MIC): 1857.94 RFU | Fluorescence intensity (RFU), Mean, 2 x MIC ([2]; 2 x MIC): 1320.58 RFU | Fluorescence intensity (RFU), Mean, 4 x MIC ([2]; 4 x MIC): 1217.94 RFU | Fluorescence intensity (RFU), Mean, 8 x MIC ([2]; 8 x MIC): 1111.33 RFU | Fluorescence intensity (RFU), Mean, 16 x MIC ([2]; 16 x MIC): 979.361 RFU | Fluorescence intensity (RFU), Mean, MIC ([2]; MIC): 1487.86 RFU
